Drawing on ChEMBL document CHEMBL1133816, “Potent second generation vinyl sulfonamide inhibitors of the trypanosomal cysteine protease cruzain” (2001), this text covers K ass and Survival time for 13 compounds.

Assay [1] deals with Cruzipain (Trypanosoma cruzi) (UniProt P25779). The experiment in a line: Second order rate constant for inactivation of cruzain of Trypanosoma cruzi.
In assay [2] the test system is Trypanosoma cruzi. As to the kind of experiment: Effect on survival time of against […] macrophages infected with Trypanosoma cruzi trypomastigotes at a concentration of 10 uM. Type of assay: functional.
The subject of assay [3] is Trypanosoma cruzi. The experiment in a line: Effect on survival time of against […] macrophages infected with Trypanosoma cruzi trypomastigotes at a concentration of 30 uM. In kind it is functional, organism-based.

The structures appear in SMILES notation. Where only a bound is given, the exact number is not on record here.

Chain of Cruzipain (Trypanosoma cruzi) (P25779 123-467 limits assumed): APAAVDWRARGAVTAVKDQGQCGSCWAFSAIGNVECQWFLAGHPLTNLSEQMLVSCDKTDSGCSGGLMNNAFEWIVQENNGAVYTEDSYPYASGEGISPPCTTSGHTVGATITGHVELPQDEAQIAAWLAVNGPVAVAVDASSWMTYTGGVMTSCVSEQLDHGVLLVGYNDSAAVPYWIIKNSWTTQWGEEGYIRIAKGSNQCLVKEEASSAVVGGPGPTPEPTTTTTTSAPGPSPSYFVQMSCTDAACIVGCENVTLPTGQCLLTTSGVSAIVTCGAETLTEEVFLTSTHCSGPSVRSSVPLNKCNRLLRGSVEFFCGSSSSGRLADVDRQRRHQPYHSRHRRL

In assay [1], `CN1CCN(C(=O)N[C@@H](Cc2ccccc2)C(=O)N[C@H](/C=C/S(=O)(=O)Cc2ccccc2)CCc2ccccc2)CC1` had a K ass of 3.85e+06 M⁻¹ s⁻¹. In the assay on Trypanosoma cruzi [2], this compound came in with a Survival time of 13 days.

The compound `O=C(N[C@@H](Cc1ccccc1)C(=O)N[C@H](/C=C/S(=O)(=O)Oc1ccccc1)CCc1ccccc1)OCc1ccccc1` gave a K ass in assay [1] of 1.68e+07 M⁻¹ s⁻¹. Further, the Survival time entry with Trypanosoma cruzi [3] is “Toxic”.

Regarding `O=C(N[C@H](/C=C/S(=O)(=O)c1ccccc1)CCc1ccccc1)[C@H](Cc1ccccc1)NC(=O)N1CCOCC1`, the K ass in assay [1] was found to be 181000 M⁻¹ s⁻¹. Further, the Survival time in the assay with Trypanosoma cruzi [2] is above 24 days.

Turning to `O=C(N[C@H](/C=C/S(=O)(=O)Cc1ccccc1)CCc1ccccc1)[C@H](Cc1ccccc1)NC(=O)N1CCOCC1`, the K ass in assay [1] is 1.67e+06 M⁻¹ s⁻¹. The compound further returned a Survival time in the assay on Trypanosoma cruzi [2] of 20 days.

Turning to `O=C(N[C@H](/C=C/S(=O)(=O)NOCc1ccccc1)CCc1ccccc1)[C@H](Cc1ccccc1)NC(=O)N1CCOCC1`, the K ass in assay [1] was 2.27e+06 M⁻¹ s⁻¹. Further, the Survival time with Trypanosoma cruzi [2] was above 24 days.

In turn, `CN1CCN(C(=O)N[C@@H](Cc2ccccc2)C(=O)N[C@H](/C=C/S(=O)(=O)Oc2ccccc2)CCc2ccccc2)CC1` displayed a K ass in assay [1] of 720000 M⁻¹ s⁻¹. The same compound gave a Survival time in the assay on Trypanosoma cruzi [2] of 9 days.

As to `CN1CCN(C(=O)N[C@@H](Cc2ccccc2)C(=O)N[C@H](/C=C/S(=O)(=O)c2ccccc2)CCc2ccccc2)CC1` [K-777], the K ass in assay [1] was 420000 M⁻¹ s⁻¹. Further, in the assay on Trypanosoma cruzi [2], the Survival time was above 24 days.

In assay [1], `O=C(N[C@@H](Cc1ccccc1)C(=O)N[C@H](/C=C/S(=O)(=O)Nc1ccccc1)CCc1ccccc1)OCc1ccccc1` displayed a K ass of 242000 M⁻¹ s⁻¹. Moreover, the Survival time in the assay with Trypanosoma cruzi [2] came out at 6 days.

For the compound `O=C(N[C@@H](Cc1ccccc1)C(=O)N[C@H](/C=C/S(=O)(=O)Cc1ccccc1)CCc1ccccc1)OCc1ccccc1`, in assay [1], the K ass worked out at 1.4e+06 M⁻¹ s⁻¹. In the assay on Trypanosoma cruzi [2], this compound came in with a Survival time of 6 days.

`O=C(N[C@H](/C=C/S(=O)(=O)Nc1ccccc1)CCc1ccccc1)[C@H](Cc1ccccc1)NC(=O)N1CCOCC1` showed a K ass in assay [1] of 4.92e+06 M⁻¹ s⁻¹. In the assay on Trypanosoma cruzi [2], this compound displayed a Survival time of 9 days.

Consider `CN1CCN(C(=O)N[C@@H](Cc2ccccc2)C(=O)N[C@H](/C=C/S(=O)(=O)Nc2ccccc2)CCc2ccccc2)CC1`, for which the K ass in assay [1] was 1.26e+06 M⁻¹ s⁻¹. The compound also returned a Survival time with Trypanosoma cruzi [2] of 9 days.

For the compound `CN1CCN(C(=O)N[C@@H](Cc2ccccc2)C(=O)N[C@H](/C=C/S(=O)(=O)NOCc2ccccc2)CCc2ccccc2)CC1`, the K ass in assay [1] stood at 6.48e+06 M⁻¹ s⁻¹. In the assay with Trypanosoma cruzi [2], this compound showed a Survival time above 24 days.

For the compound `O=C(N[C@H](/C=C/S(=O)(=O)Oc1ccccc1)CCc1ccccc1)[C@H](Cc1ccccc1)NC(=O)N1CCOCC1`, the K ass in assay [1] was found to be 1.02e+07 M⁻¹ s⁻¹. Also, the Survival time result with Trypanosoma cruzi [2] was “Toxic”.
